Reference: patent US10016343B2, “Solid stick antiperspirant compositions” (The Procter & Gamble Company, priority 2013, dated 2018)

Assay: Hygroscopicity (equilibrium moisture pick up) of antiperspirant active
Type: physicochemical
Conditions: 86% RH, 20° C., 5 days
Description: One way to evaluate the hygroscopic nature of an antiperspirant active is to determine the equilibrium moisture pick up of the active after 5 days in a controlled relative humidity environment. Specific humidity chambers can be created placing saturated salt solutions in desiccators at a specific temperature. Different salts are used to create different humidities, for example potassium chloride can be used to make an 86% relative humidity (RH) environment at 20° C. In general there is an increase in moisture pick up as humidity is increased for the antiperspirant actives shown, however there are clear differences in slope and amount of moisture pick up at high humidity. Materials with higher slope and larger increases at high humidity (i.e. 86% RH) are considered to be more hygroscopic. The aluminum zirconium trichlorohydrate active (metal to chloride ratio=1.6) from Inventive Example 1 is the least hygroscopic (28% moisture pick up at 86% RH) with the aluminum zirconium tetrachlorohydrate active (metal to chloride ratio=1.2) being substantially more hygroscopic (40% moisture pick up at 86% RH). […] This may explain the substantial difference observed in the amount of sweat measured between Inventive Examples 1 and 2. […]

aluminum zirconium tetrachlorohydrate
moisture pick up (hygroscopicity): 40%

aluminum zirconium trichlorohydrate
moisture pick up (hygroscopicity): 28%
